Results published in patent US12509421B2, “Preparation and application of deuterated 4-phenyl-4-piperidinols” (priority 2022, dated 2025).
Where a name gives a salt, the structure may show the parent alone. Read-outs that look alike come from different tables or passages of the source.

Assays:
ICR mice = assay: Evaluation of side effects of constipation (defecation time, number, weight); type: in vivo; conditions: for Number of defecating animals: 10 mice per group; for Number of defecating animals / Fecal weight: within 5 hours; for Defecation time: first black stool; for Defecation time / water content of feces / Fecal weight: x ± SE; for Defecation time / water content of feces: only animals that defecate within 5 hours
Description: Constipation side effect is a common side effect of opioid drugs. This patent evaluates the possibility of constipation side effect by the influence of the compound on defecation time, defecation quantity and defecation weight of experimental animals.
ICR mice are randomly divided into 6 groups with 10 mice in each group after adaptive feeding. Fasting for 16-24 h, without stopping drinking, the blank control group is given solvent, during which the normal diet is: (1) the blank control group; (2) Compound diphenoxylate (7.5 mg/kg) group; (3) Low dose (1 mg/kg) group; (4) High dose (5 mg/kg) group of the compound to be tested.
After administration for 30 minutes, the mice in each group are given Chinese ink by gavage. After administration, the mice are kept in a single cage, and the excretion time of the first black stool is recorded. The number and weight (wet weight) of defecation particles in each mouse within 5 hours after administration are recorded. each group of mice are placed in an IVC cage with clean filter paper. The feces of each mouse are collected, put into a sterile 1.5 ml EP tube and stored in an ice box. During the collection, the number of defecation particles of each mouse is recorded, and the wet weight is weighed. After the collected feces are dried, the dry weight of the feces is recorded. Drying conditions: put fresh feces in an oven and bake at 100° C. for 5-10 minutes until the dry weight of feces is constant. The following formula is used to calculate the water content of feces, and the water content of feces (%)=(wet feces mass−dry feces mass)/wet feces mass×100%.
The data required for measurement and observation in this experiment are recorded in the corresponding table. All data are statistically processed by Microsoft Excel, and expressed as “mean standard error”. The data of each group are statistically analyzed by SPSS software package.

[1] = Metabolic stability in liver microsomes, rat; conditions: for half-life at 2 μM / microsomal CLint at 2 μM: rat, microsomes, pH 7.4
Description: (§1) The solution B is slowly dropped into solution A, and the pH is adjusted to 7.40±0.05.
(§2) • Control drug: 4 μL Verapamil solution (10 mM) is added with 96 μL DMSO and diluted to 400 μM; • Compound to be tested: 4 μL compound to be tested (10 mM) is added with 96 μL normal saline and diluted to 400 μM.
(§3) The microsomes are stored in the refrigerator at −80° C., thawed at room temperature after being taken out, and mixed gently.
(§4) […] PBS (100 mm, pH=7.4) solution is added to the negative sample. The solution is put into water bath at 37° C. and pre-incubated for 10 minutes; • B) After incubation, 2 μL reference drug or compound to be tested (400 μM) are added into each well to start the reaction.

[2] = Metabolic stability in liver microsomes, human; conditions: for half-life at 2 μM / microsomal CLint at 2 μM: human, microsomes, pH 7.4
Description: as §1, §2, §3, §4

hERG potassium channel = hERG potassium channel (Homo sapiens, UniProt Q12809); assay: hERG potassium channel whole-cell patch clamp (HEK293); type: cell-based; set-up: expressed in transfected cells; host or cells: HEK293 cell line; conditions: for IC50: HEK293 cells stably expressing hERG, whole-cell patch clamp, room temperature, read-out: Half-inhibition concentration of compounds to be tested on hERG (IC50)
How it was run: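 Whole-cell patch clamp in HEK293 cells at room temperature: tail current elicited by −80 to 30 mV for 2.5 s, then −50 mV for 4 s, every 10 s. Ascending concentrations were gravity-perfused for 5 min each, with each cell's compound-free current as control. IC50 came from nonlinear fit of inhibition.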

Female Kunming mice = conditions: as disclosed in patent CN201911076305.X; cited from earlier work
[3] = Rat liver microsomes 0.5 mg/mL, NADPH 1 mM, compound 2 μM
[4] = Human liver microsomes 0.5 mg/mL, NADPH 1 mM, compound 2 μM

Chain of hERG potassium channel (Q12809 whole entry, the tested form may be a part): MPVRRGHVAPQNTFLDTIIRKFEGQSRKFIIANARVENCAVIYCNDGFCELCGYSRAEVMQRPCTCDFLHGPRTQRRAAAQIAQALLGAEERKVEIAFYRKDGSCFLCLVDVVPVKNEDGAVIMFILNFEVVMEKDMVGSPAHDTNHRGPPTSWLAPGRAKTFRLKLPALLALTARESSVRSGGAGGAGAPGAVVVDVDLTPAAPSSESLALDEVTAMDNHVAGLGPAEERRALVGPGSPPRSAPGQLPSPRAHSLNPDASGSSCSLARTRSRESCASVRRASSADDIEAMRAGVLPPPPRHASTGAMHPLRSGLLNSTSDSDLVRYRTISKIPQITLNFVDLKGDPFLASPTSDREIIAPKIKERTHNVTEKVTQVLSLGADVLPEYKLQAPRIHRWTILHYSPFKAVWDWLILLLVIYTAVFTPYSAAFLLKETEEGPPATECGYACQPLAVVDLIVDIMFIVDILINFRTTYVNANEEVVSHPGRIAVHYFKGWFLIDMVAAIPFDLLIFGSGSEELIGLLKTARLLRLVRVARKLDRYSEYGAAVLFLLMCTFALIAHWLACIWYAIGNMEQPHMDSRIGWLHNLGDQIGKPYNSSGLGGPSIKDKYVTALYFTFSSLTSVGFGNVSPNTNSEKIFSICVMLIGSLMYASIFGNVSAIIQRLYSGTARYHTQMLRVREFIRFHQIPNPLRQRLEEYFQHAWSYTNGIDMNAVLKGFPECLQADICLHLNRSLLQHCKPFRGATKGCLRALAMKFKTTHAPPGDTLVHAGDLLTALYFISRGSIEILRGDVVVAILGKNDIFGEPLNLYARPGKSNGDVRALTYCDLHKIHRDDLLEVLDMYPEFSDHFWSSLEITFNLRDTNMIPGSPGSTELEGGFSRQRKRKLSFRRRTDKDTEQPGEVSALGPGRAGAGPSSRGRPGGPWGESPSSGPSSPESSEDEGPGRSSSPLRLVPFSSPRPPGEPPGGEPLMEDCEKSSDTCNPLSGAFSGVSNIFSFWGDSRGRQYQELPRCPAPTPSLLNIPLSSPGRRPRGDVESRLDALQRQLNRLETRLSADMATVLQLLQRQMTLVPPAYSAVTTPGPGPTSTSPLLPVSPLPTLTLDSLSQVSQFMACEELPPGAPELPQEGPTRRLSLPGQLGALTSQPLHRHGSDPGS

SMILES	Number of defecating animals (ICR mice; 1 mg/kg)	Defecation time (ICR mice; 1 mg/kg)	water content of feces (ICR mice; 1 mg/kg)	Fecal weight (ICR mice; 1 mg/kg)	Number of defecating animals (ICR mice; 5 mg/kg)	Defecation time (ICR mice; 5 mg/kg)	water content of feces (ICR mice; 5 mg/kg)	Fecal weight (ICR mice; 5 mg/kg)	half-life at 2 μM [1]	microsomal CLint at 2 μM [1]	half-life at 2 μM [2]	microsomal CLint at 2 μM [2]	hERG inhibition grade (hERG potassium channel)	IC50 (hERG potassium channel)	other results
[2H]C([2H])([2H])N(C)C[C@@H]1CN(C(=O)Cc2cc(F)c(F)cc2F)CC[C@@]1(O)c1cccc(OC)c1 [II-7hydrochloride, 1-((3R,4S)-4-hydroxy-4-(3-methoxyphenyl)-3-(((methyl-d3)amino)methyl)-1-piperidinyl)-2(2,4,5-trifluorophenyl)ethyl-1-one]	9	109.0 ± 8.8 min	44.8 ± 3.2%	0.3846 ± 0.0798 g	3	200.6 ± 7.9 min	38.6 ± 7.9%	0.0612 ± 0.0079 g	5.68 min	689 µL/min/mg	5.42 min	681 µL/min/mg			
[2H]C([2H])([2H])Oc1cccc([C@]2(O)CCN(S(=O)(=O)Cc3ccccc3)C[C@H]2CN(C([2H])([2H])[2H])C([2H])([2H])[2H])c1 [II-5hydrochloride]	8	160.1 ± 9.9 min	42.7 ± 1.9%	0.3389 ± 0.0902 g	2	202.8 ± 4.2 min	37.6 ± 8.6%	0.0478 ± 0.0061 g	6.59 min	763 µL/min/mg	6.25 min	704 µL/min/mg	μM((Weak inhibition)	23.9 µM	
[2H]C([2H])([2H])N(C[C@@H]1CN(C(=O)Cc2cc(F)c(F)cc2F)CC[C@@]1(O)c1cccc(OC)c1)C([2H])([2H])[2H] [II-9hydrochloride]	8	182.6 ± 10.2 min	43.2 ± 2.5%	0.3399 ± 0.0983 g	2	242.9 ± 11.9 min	37.9 ± 8.9%	0.0489 ± 0.0073 g	5.55 min	681 µL/min/mg	5.32 min	673 µL/min/mg	μM((Weak inhibition)	20.5 µM	
[2H]C([2H])([2H])Oc1cccc([C@]2(O)CCN(C(=O)Cc3cc(F)c(F)cc3F)C[C@H]2CN(C([2H])([2H])[2H])C([2H])([2H])[2H])c1 [II-11hydrochloride]	8	190.3 ± 12.7 min	43.5 ± 2.8%	0.3402 ± 0.0828 g	2	265.9 ± 13.1 min	38.2 ± 9.5%	0.0496 ± 0.0067 g	6.46 min	747 µL/min/mg	6.18 min	711 µL/min/mg	μM((Weak inhibition)	20.2 µM	
[2H]C([2H])([2H])N(C)C[C@@H]1CN(S(=O)(=O)Cc2ccccc2)CC[C@@]1(O)c1cccc(OC)c1 [II-1hydrochloride]	9	105.9 ± 10.5 min	43.5 ± 2.6%	0.3682 ± 0.0816 g	3	202.4 ± 6.2 min	38.2 ± 8.6%	0.0586 ± 0.0065 g	5.63 min	701 µL/min/mg	5.22 min	663 µL/min/mg			
[2H]C([2H])([2H])N(C[C@@H]1CN(S(=O)(=O)Cc2ccccc2)CC[C@@]1(O)c1cccc(OC)c1)C([2H])([2H])[2H] [II-3hydrochloride]	8	152.8 ± 4.1 min	43.0 ± 2.1%	0.3396 ± 0.0965 g	2	243.6 ± 10.5 min	37.8 ± 8.9%	0.0482 ± 0.0053 g	5.72 min	697 µL/min/mg	5.46 min	685 µL/min/mg	μM((Weak inhibition)	14.7 µM	
COc1cccc([C@]2(O)CCN(S(=O)(=O)Cc3ccccc3)C[C@H]2CN(C)C)c1.Cl [Example 20 of CN201911076305.X, reference compound]	9	281 ± 4 min	19.6 ± 4.5%	0.1243 ± 0.0153 g			0%	0 g							hERG inhibition grade (hERG potassium channel; listed as Example 20 of patent CN201911076305.X, hydrochloride): moderate inhibitory effects on hERG; hERG inhibition grade (hERG potassium channel; listed as example 20 of the prior art CN201911076305.X, hydrochloride): μM(Moderate intensity inhibition); Number of defecating animals (ICR mice; 5 mg/kg, hydrochloride): 0; Number of defecating animals (ICR mice; 5 mg/kg, listed as Example 20 in patent CN201911076305.X, hydrochloride): did not defecate; constipation in experimental animals (ICR mice; comparative experiments of the inventor): can cause constipation in experimental animals in a dose-dependent manner; CLint [1, 3]: 747.68 μL/min/mg protein; t1/2 [1, 3]: 1.85 min; ED50 in mouse hot plate experiments (Female Kunming mice): 0.49 mg/kg; CLint [2, 4]: 950.42 μL/min/mg protein; t1/2 [2, 4]: 1.46 min
